Data as given in the CheMixHub ionic liquid set.

Assay: xn = mol fraction of the nth substance listed

NC(=O)C(F)(F)F + C[P+](c1ccccc1)(c1ccccc1)c1ccccc1.[Br-]
288.15 K, 101.3 kPa, x1 = 0.889
Settings	electrical conductivity [S/m]	viscosity [mPa·s]
–	0.035	410

CC[N+](CC)=C(N(C)C)N(C)C.O=S(=O)([N-]S(=O)(=O)C(F)(F)F)C(F)(F)F + CO
101 kPa
Settings	electrical conductivity, 293.2 K [S/m]	viscosity, 293.15 K [mPa·s]	viscosity, 298.15 K [mPa·s]	viscosity, 303.15 K [mPa·s]	viscosity, 308.15 K [mPa·s]	viscosity, 313.15 K [mPa·s]	viscosity, 318.15 K [mPa·s]	viscosity, 323.15 K [mPa·s]
x1 = 0.0003107	0.0546	0.59	0.556	0.528	0.493	0.462	0.442	0.42
x1 = 0.0006532	0.102	0.597	0.56	0.532	0.497	0.466	0.445	0.423
x1 = 0.00159	0.205	0.604	0.568	0.538	0.503	0.471	0.45	0.427
x1 = 0.003264	0.334	0.619	0.58	0.55	0.514	0.481	0.459	0.435
x1 = 0.006358	0.564	0.646	0.605	0.573	0.535	0.5	0.477	0.452
x1 = 0.01246	0.89	0.702	0.656	0.617	0.576	0.538	0.514	0.488
x1 = 0.01888	1.17	0.766	0.715	0.672	0.627	0.585	0.554	0.525
x1 = 0.02468	1.31	0.822	0.767	0.715	0.667	0.622	0.59	0.558
x1 = 0.03071	1.47	0.893	0.828	0.774	0.718	0.67	0.631	0.596
x1 = 0.03685	1.59	0.963	0.891	0.827	0.77	0.719	0.675	0.636
x1 = 0.04275	1.67	1.048	0.966	0.894	0.83	0.773	0.724	0.68
x1 = 0.05163	1.78	1.152	1.06	0.979	0.907	0.844	0.788	0.739
x1 = 0.05988	1.83	1.267	1.162	1.07	0.989	0.918	0.856	0.801
x1 = 0.07419	1.89	1.484	1.356	1.244	1.146	1.06	0.985	0.919
x1 = 0.08753	1.9	1.71	1.56	1.429	1.313	1.21	1.119	1.04

CCCn1cc[n+](C)c1C.F[B-](F)(F)F + O
101 kPa
Settings	viscosity [mPa·s]
298.15 K, x2 = 0.1932	134.9
303.15 K, x2 = 0.1932	103.3
303.15 K, x2 = 0.3944	40.4
303.15 K, x2 = 0.4987	25.5
308.15 K, x2 = 0.2833	53.2
308.15 K, x2 = 0.3944	32.95
308.15 K, x2 = 0.5995	13.58
318.15 K, x2 = 0.0939	78.6
318.15 K, x2 = 0.1932	52.1
333.15 K, x2 = 0.0939	42.5
333.15 K, x2 = 0.5995	6.65
333.15 K, x2 = 0.6985	4.37
343.15 K, x2 = 0.0939	29.96

COCCOCCOC + CCCC[n+]1ccn(C)c1.F[B-](F)(F)F
100 kPa
Settings	viscosity [mPa·s]
283.15 K, x2 = 0.05926	2.33
283.15 K, x2 = 0.1017	2.93
283.15 K, x2 = 0.193	4.788
283.15 K, x2 = 0.2925	8.04
283.15 K, x2 = 0.3989	14.34
283.15 K, x2 = 0.4972	23.78
283.15 K, x2 = 0.5761	35.48
283.15 K, x2 = 0.6977	62.63
283.15 K, x2 = 0.7915	93.5
283.15 K, x2 = 0.8978	151.1
283.15 K, x2 = 0.9426	187.3
293.15 K, x2 = 0.05427	1.895
293.15 K, x2 = 0.1026	2.374
293.15 K, x2 = 0.195	3.051
293.15 K, x2 = 0.2987	6.258
293.15 K, x2 = 0.3891	9.33
293.15 K, x2 = 0.4902	16.39
293.15 K, x2 = 0.5631	22.79
293.15 K, x2 = 0.6762	35.31
293.15 K, x2 = 0.7902	55.27
293.15 K, x2 = 0.8969	86
293.15 K, x2 = 0.9436	103.9
303.15 K, x2 = 0.04967	1.214
303.15 K, x2 = 0.05867	1.133
303.15 K, x2 = 0.1027	1.519
303.15 K, x2 = 0.1925	2.927
303.15 K, x2 = 0.2857	4.426
303.15 K, x2 = 0.4003	7.339
303.15 K, x2 = 0.4952	10.86
303.15 K, x2 = 0.5755	15.38
303.15 K, x2 = 0.6993	24.97
303.15 K, x2 = 0.7943	35.15
303.15 K, x2 = 0.8999	51.8
303.15 K, x2 = 0.9387	59.7
313.15 K, x2 = 0.08858	1.238
313.15 K, x2 = 0.168	1.472
313.15 K, x2 = 0.2583	2.155
313.15 K, x2 = 0.3563	3.486
313.15 K, x2 = 0.4578	5.566
313.15 K, x2 = 0.5473	8.36
313.15 K, x2 = 0.6683	12.94
313.15 K, x2 = 0.7655	18.99
313.15 K, x2 = 0.8894	28.19
313.15 K, x2 = 0.9307	31.25

CC[N+](CC)=C(N(C)C)N(C)C.O=S(=O)([N-]S(=O)(=O)C(F)(F)F)C(F)(F)F + CCO
101 kPa
Settings	electrical conductivity, 293.2 K [S/m]	viscosity, 293.15 K [mPa·s]	viscosity, 298.15 K [mPa·s]	viscosity, 303.15 K [mPa·s]	viscosity, 308.15 K [mPa·s]	viscosity, 313.15 K [mPa·s]	viscosity, 318.15 K [mPa·s]	viscosity, 323.15 K [mPa·s]
x1 = 0.0004697	0.0209	1.188	1.083	0.985	0.895	0.825	0.758	0.701
x1 = 0.0008976	0.0341	1.203	1.096	0.996	0.905	0.834	0.766	0.708
x1 = 0.002294	0.0657	1.228	1.119	1.016	0.922	0.849	0.78	0.72
x1 = 0.004714	0.109	1.266	1.146	1.04	0.945	0.871	0.8	0.738
x1 = 0.009053	0.167	1.318	1.197	1.088	0.987	0.909	0.835	0.772
x1 = 0.018	0.278	1.438	1.304	1.185	1.075	0.989	0.909	0.839
x1 = 0.02647	0.393	1.561	1.414	1.282	1.162	1.069	0.981	0.904
x1 = 0.03521	0.477	1.7	1.537	1.394	1.263	1.156	1.061	0.98
x1 = 0.04396	0.552	1.85	1.66	1.502	1.363	1.253	1.149	1.06
x1 = 0.05173	0.591	1.99	1.79	1.612	1.459	1.327	1.218	1.121
x1 = 0.06055	0.661	2.15	1.92	1.73	1.564	1.419	1.304	1.199
x1 = 0.07263	0.716	2.38	2.12	1.91	1.72	1.557	1.423	1.306
x1 = 0.08417	0.756	2.61	2.32	2.08	1.87	1.69	1.542	1.412
x1 = 0.1028	0.848	2.97	2.65	2.37	2.13	1.92	1.75	1.592
x1 = 0.1216	0.904	3.38	3.01	2.69	2.42	2.18	1.96	1.77

CC[n+]1ccccc1.N#C[N-]C#N + O
100 kPa
Settings	electrical conductivity [S/m]	viscosity [mPa·s]
298.15 K, x1 = 0.9411	2.15	–
298.15 K, x1 = 0.9677	1.94	–
298.15 K, x2 = 0.01044	–	16.52
303.15 K, x1 = 0.9542	2.27	–
303.15 K, x1 = 0.9756	–	13.97
308.15 K, x1 = 0.9542	2.58	–
308.15 K, x2 = 0.01044	–	12.55
313.15 K, x1 = 0.9355	–	10.08
313.15 K, x1 = 0.9619	–	10.49
313.15 K, x1 = 0.9677	2.82	–
313.15 K, x2 = 0.01044	–	11.02
318.15 K, x1 = 0.9542	3.25	–
323.15 K, x1 = 0.9756	–	8.27
328.15 K, x1 = 0.9756	–	7.44
333.15 K, x1 = 0.9283	4.91	–
333.15 K, x1 = 0.9411	4.81	–
333.15 K, x1 = 0.9677	4.61	–
338.15 K, x1 = 0.9355	–	5.76
338.15 K, x1 = 0.9485	–	5.86
338.15 K, x1 = 0.9756	–	6.1
